From PubChem BioAssay (NCI)
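48-hour exposure; five concentrations; linearly interpolated endpoints. Definition used: TGI = concentration required for complete inhibition of growth.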

What was measured:
Test in all cases: NCI-60 cell line screen, 48 h
EKVX NSCLC = test system: EKVX NSCLC
SF-295 CNS = test system: SF-295 CNS
SK-OV-3 ovarian = test system: SK-OV-3 ovarian
ACHN renal = test system: ACHN renal
SW-620 colon = test system: SW-620 colon
DMS 114 small cell lung = test system: DMS 114 small cell lung
TK-10 renal = test system: TK-10 renal
SF-539 CNS = test system: SF-539 CNS
IGROV1 ovarian = test system: IGROV1 ovarian
COLO 205 colon = test system: COLO 205 colon
NCI-H460 lung = test system: NCI-H460 lung
OVCAR-3 ovarian = test system: OVCAR-3 ovarian
CCRF-CEM leukemia = test system: CCRF-CEM leukemia
K-562 leukemia = test system: K-562 leukemia
HOP-18 NSCLC = test system: HOP-18 NSCLC
UACC-257 melanoma = test system: UACC-257 melanoma
SK-MEL-2 melanoma = test system: SK-MEL-2 melanoma
SK-MEL-28 melanoma = test system: SK-MEL-28 melanoma
UO-31 renal = test system: UO-31 renal
HOP-62 NSCLC = test system: HOP-62 NSCLC
HL-60(TB) leukemia = test system: HL-60(TB) leukemia
NCI-H226 lung = test system: NCI-H226 lung
MOLT-4 leukemia = test system: MOLT-4 leukemia
SK-MEL-5 melanoma = test system: SK-MEL-5 melanoma
KM20L2 colon = test system: KM20L2 colon
SNB-75 CNS = test system: SNB-75 CNS
RPMI-8226 leukemia = test system: RPMI-8226 leukemia
M19-MEL melanoma = test system: M19-MEL melanoma
U251 CNS = test system: U251 CNS
DLD-1 colon = test system: DLD-1 colon
DMS 273 small cell lung = test system: DMS 273 small cell lung
A549 NSCLC = test system: A549 NSCLC
KM12 colon = test system: KM12 colon
HT29 colon = test system: HT29 colon
RXF 393 renal = test system: RXF 393 renal
OVCAR-8 ovarian = test system: OVCAR-8 ovarian
M14 melanoma = test system: M14 melanoma
786-0 renal = test system: 786-0 renal
UACC-62 melanoma = test system: UACC-62 melanoma
NCI-H23 lung = test system: NCI-H23 lung
SN12C renal = test system: SN12C renal
MALME-3M melanoma = test system: MALME-3M melanoma
NCI-H522 lung = test system: NCI-H522 lung
HCT-15 colon = test system: HCT-15 colon
LOX IMVI melanoma = test system: LOX IMVI melanoma
HCT-116 colon = test system: HCT-116 colon

Cc1ccccc1NC(=O)c1cc2cc(N=Nc3ccccc3C(=O)O)ccc2oc1=O
TGI (EKVX NSCLC): > 100 µM | TGI (SF-295 CNS): 39.2 µM | TGI (SK-OV-3 ovarian): 68.7 µM | TGI (ACHN renal): > 100 µM | TGI (SW-620 colon): > 100 µM | TGI (DMS 114 small cell lung): 41.2 µM | TGI (TK-10 renal): > 100 µM | TGI (SF-539 CNS): 37.5 µM | TGI (IGROV1 ovarian): 65.2 µM | TGI (COLO 205 colon): 27.8 µM | TGI (NCI-H460 lung): 60 µM | TGI (OVCAR-3 ovarian): > 100 µM | TGI (CCRF-CEM leukemia): 80.4 µM | TGI (K-562 leukemia): 79.5 µM | TGI (HOP-18 NSCLC): 35.1 µM | TGI (UACC-257 melanoma): 24.1 µM | TGI (SK-MEL-2 melanoma): 47.7 µM | TGI (SK-MEL-28 melanoma): 41.2 µM | TGI (UO-31 renal): 50.6 µM | TGI (HOP-62 NSCLC): 43.3 µM | TGI (HL-60(TB) leukemia): 55.6 µM | TGI (NCI-H226 lung): 44 µM | TGI (MOLT-4 leukemia): 83.5 µM | TGI (SK-MEL-5 melanoma): 30.7 µM | TGI (KM20L2 colon): 32.1 µM | TGI (SNB-75 CNS): 35.6 µM | TGI (RPMI-8226 leukemia): 60.2 µM | TGI (M19-MEL melanoma): 27.3 µM | TGI (U251 CNS): 51.5 µM | TGI (DLD-1 colon): 54.3 µM | TGI (DMS 273 small cell lung): 42.5 µM | TGI (A549 NSCLC): > 100 µM | TGI (KM12 colon): 27.8 µM | TGI (HT29 colon): 38.3 µM | TGI (RXF 393 renal): 33.9 µM | TGI (OVCAR-8 ovarian): > 100 µM | TGI (M14 melanoma): 37.7 µM | TGI (786-0 renal): 69.6 µM | TGI (UACC-62 melanoma): 17.9 µM | TGI (NCI-H23 lung): 12.2 µM | TGI (SN12C renal): 53.3 µM | TGI (MALME-3M melanoma): 25 µM | TGI (NCI-H522 lung): 29.5 µM | TGI (HCT-15 colon): 36.7 µM | TGI (LOX IMVI melanoma): 41.6 µM | TGI (HCT-116 colon): 57.9 µM
